The record followed here is patent US10633419B2, “Immunomodulators” (BRISTOL-MYERS SQUIBB COMPANY, priority 2014, dated 2020).

Starred links: 1 amine or outer side, 2 acyl side, 3 side chain; linkers in the order of their positions; H or OH if unused. Positions of bridges follow the written chain, without caps; N, C: chain ends. Non-standard residues stand in square brackets, D forms with d. Residues, ends and D or L forms follow the SMILES beside them. Groups on a side chain read outwards from the residue. *: point of attachment. Trp(1-CH2COOH) = N[C@@H](Cc1cn(CC(=O)O)c2ccccc12)C(=O)O; X9 = O=C(O)CCCCCCCCCCCCCCCCC(=O)N[C@@H](CCN*)C(=O)O; C18 diacid = O=C(O)CCCCCCCCCCCCCCCCC(=O)*; γGlu = O=C(O)[C@H](CCC(=O)[*:2])N[*:1]; βAsp = O=C(O)[C@H](CC(=O)[*:2])N[*:1]; X16 = O=C([C@H]1COCCN1[*:1])[*:2]; Hyp = O=C(O)[C@@H]1C[C@@H](O)CN1; NMeNle = CCCC[C@H](NC)C(=O)O; Pip = O=C(O)[C@@H]1CCCCN1; NMeA = CN[C@@H](C)C(=O)O; Dab = NCC[C@H](N)C(=O)O; Dap = NC[C@H](N)C(=O)O; PEG2 = NCCOCCOCCC(=O)O; PEG1 = NCCOCCC(=O)O; AEA = NCCOCC(=O)O; Ava = NCCCCC(=O)O; GABA = NCCCC(=O)O; βAla = NCCC(=O)O

The target in the first test is T1, PD-L1 (Homo sapiens, UniProt Q9NZQ7).
T1 construct: hPDL1(19-239)-TVMV-His; made in house; host or cells: HEK293T
T1 sequence (Q9NZQ7 with tags, fused parts or gaps): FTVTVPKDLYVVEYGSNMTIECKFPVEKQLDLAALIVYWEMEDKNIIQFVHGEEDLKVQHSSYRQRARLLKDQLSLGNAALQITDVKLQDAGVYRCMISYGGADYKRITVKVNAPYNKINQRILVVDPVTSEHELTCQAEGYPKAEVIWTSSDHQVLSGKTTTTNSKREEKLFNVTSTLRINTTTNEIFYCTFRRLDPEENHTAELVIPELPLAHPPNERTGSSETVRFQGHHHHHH
Kind of test: PD-1/PD-L1 Homogenous Time-Resolved Fluorescence (HTRF) binding assay (PD-1-Ig/PD-L1-His). The following applies: inhibition of PD-1-Ig binding to PD-L1-TVMV-His; value given as number; read-out: HTRF IC50. Summed up: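 HTRF competition in dPBS with 0.1% BSA and 0.05% Tween-20: 20 nM PD-1-Ig added after 15 min compound pre-incubation with 10 nM PD-L1-His, then another 15 min. Signal (665/620 nm) after 30 min with APC anti-His (20 nM) and Eu anti-Ig (1 nM).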
(In general: Time-resolved FRET reads energy transfer from a long-lived donor to a nearby acceptor.)
As to `CCCC[C@H]1C(=O)N(C)[C@@H](CCCC)C(=O)N[C@@H](CC(C)C)C(=O)N[C@H](C(=O)NCC(=O)N[C@@H](CC(=O)NCCCC(=O)NCC[C@H](NC(=O)CCCCCCCCCCCCCCCCC(=O)O)C(=O)O)C(=O)O)CSCC(=O)N[C@@H](Cc2ccc(O)cc2)C(=O)N2CCCC[C@H]2C(=O)N[C@@H](CC(N)=O)C(=O)N2CCC[C@H]2C(=O)N[C@@H](CN)C(=O)N[C@@H](CC(C)C)C(=O)N2C[C@H](O)C[C@H]2C(=O)N[C@@H](Cc2c[nH]c3ccccc23)C(=O)N[C@@H](CCN)C(=O)N[C@@H](Cc2cn(CC(=O)O)c3ccccc23)C(=O)N1C` [Example 13162] ({CH2CO}-Y[Pip]NP[Dap]L[Hyp]W[Dab][Trp(1-CH2COOH)][NMeNle][NMeNle]LCG[βAsp][GABA]-X9; thioether N-14), the IC50 (commonly the midpoint of a concentration-inhibition curve) was determined as 3.8 nM.

The same test, now with this note: inhibition of PD-1-Ig binding to PD-L1-TVMV-His; value given as range class; read-out: HTRF IC50.
As to `CCCC[C@H]1C(=O)N(C)[C@@H](CCCC)C(=O)N[C@@H](CC(C)C)C(=O)N[C@H](C(=O)NCC(=O)N[C@@H](CNC(=O)CC[C@H](NC(=O)CCCCCCCCCCCCCCCCC(=O)O)C(=O)O)C(=O)O)CSCC(=O)N[C@@H](Cc2ccc(O)cc2)C(=O)N2CCCC[C@H]2C(=O)N[C@@H](CC(N)=O)C(=O)N2CCC[C@H]2C(=O)N[C@@H](CN)C(=O)N[C@@H](CC(C)C)C(=O)N2C[C@H](O)C[C@H]2C(=O)N[C@@H](Cc2c[nH]c3ccccc23)C(=O)N[C@@H](CCN)C(=O)N[C@@H](Cc2cn(CC(=O)O)c3ccccc23)C(=O)N1C` [Example 13152] ({CH2CO}-Y[Pip]NP[Dap]L[Hyp]W[Dab][Trp(1-CH2COOH)][NMeNle][NMeNle]LCG[Dap]([γGlu-C18 diacid])-OH; thioether N-14), the IC50 fell in the range of 0.3 to 9.9 nM.
Regarding `CCCC[C@H]1C(=O)N(C)[C@@H](CCCC)C(=O)N[C@@H](CC(C)C)C(=O)N[C@H](C(=O)NCC(=O)N[C@@H](CNC(=O)CC[C@H](NC(=O)CCCCCCCCCCCCCCCCC(=O)O)C(=O)O)C(=O)O)CSCC(=O)N[C@@H](Cc2ccc(O)cc2)C(=O)N(C)[C@@H](C)C(=O)N[C@@H](CC(N)=O)C(=O)N2CCC[C@H]2C(=O)N[C@@H](CN)C(=O)N[C@@H](CC(C)C)C(=O)N2C[C@H](O)C[C@H]2C(=O)N[C@@H](Cc2c[nH]c3ccccc23)C(=O)N[C@@H](CCN)C(=O)N[C@@H](Cc2cn(CC(=O)O)c3ccccc23)C(=O)N1C` [Example 13153] ({CH2CO}-Y[NMeA]NP[Dap]L[Hyp]W[Dab][Trp(1-CH2COOH)][NMeNle][NMeNle]LCG[Dap]([γGlu-C18 diacid])-OH; thioether N-14), the IC50 fell in the range of 0.3 to 9.9 nM.
On the same count and under the same terms, the value for `CCCC[C@H]1C(=O)N(C)[C@@H](CCCC)C(=O)N[C@@H](CC(C)C)C(=O)N[C@H](C(=O)NCC(=O)N[C@@H](CNC(=O)CC[C@H](NC(=O)CCCCCCCCCCCCCCCCC(=O)O)C(=O)O)C(=O)O)CSCC(=O)N[C@@H](Cc2ccc(OC)cc2)C(=O)N2CCCC[C@H]2C(=O)N[C@@H](CC(N)=O)C(=O)N2CCC[C@H]2C(=O)N[C@@H](Cc2c[nH]cn2)C(=O)N[C@@H](CCC(N)=O)C(=O)N2C[C@H](O)C[C@H]2C(=O)N[C@@H](Cc2c[nH]c3ccccc23)C(=O)N[C@@H](CCN)C(=O)N[C@@H](Cc2cn(CC(=O)O)c3ccccc23)C(=O)N1C` [Example 13154] ({CH2CO}-Y(Me)[Pip]NPHQ[Hyp]W[Dab][Trp(1-CH2COOH)][NMeNle][NMeNle]LCG[Dap]([γGlu-C18 diacid])-OH; thioether N-14) was 0.3 to 9.9 nM; that for `CCCC[C@H]1C(=O)N(C)[C@@H](CCCC)C(=O)N[C@@H](CC(C)C)C(=O)N[C@H](C(=O)NCC(=O)N[C@@H](CC(=O)NCC[C@H](NC(=O)CCCCCCCCCCCCCCCCC(=O)O)C(=O)O)C(=O)O)CSCC(=O)N[C@@H](Cc2ccc(OC)cc2)C(=O)N2CCCC[C@H]2C(=O)N[C@@H](CC(N)=O)C(=O)N2CCC[C@H]2C(=O)N[C@@H](Cc2c[nH]cn2)C(=O)N[C@@H](CCC(N)=O)C(=O)N2C[C@H](O)C[C@H]2C(=O)N[C@@H](Cc2c[nH]c3ccccc23)C(=O)N[C@@H](CCN)C(=O)N[C@@H](Cc2cn(CC(=O)O)c3ccccc23)C(=O)N1C` [Example 13156] ({CH2CO}-Y(Me)[Pip]NPHQ[Hyp]W[Dab][Trp(1-CH2COOH)][NMeNle][NMeNle]LCGD(X9)-OH; thioether N-14) was 0.3 to 9.9 nM; that for `CCCC[C@H]1C(=O)N(C)[C@@H](CCCC)C(=O)N[C@@H](CC(C)C)C(=O)N[C@H](C(=O)NCC(=O)N[C@@H](CC(=O)NCC[C@H](NC(=O)CCCCCCCCCCCCCCCCC(=O)O)C(=O)O)C(=O)O)CSCC(=O)N[C@@H](Cc2ccc(OC)cc2)C(=O)N2CCCC[C@H]2C(=O)N[C@@H](CC(=O)O)C(=O)N2CCC[C@H]2C(=O)N[C@@H](Cc2c[nH]cn2)C(=O)N[C@@H](CCC(N)=O)C(=O)N2C[C@H](O)C[C@H]2C(=O)N[C@@H](Cc2c[nH]c3ccccc23)C(=O)N[C@@H](CCN)C(=O)N[C@@H](Cc2cn(CC(=O)O)c3ccccc23)C(=O)N1C` [Example 13157] ({CH2CO}-Y(Me)[Pip]DPHQ[Hyp]W[Dab][Trp(1-CH2COOH)][NMeNle][NMeNle]LCGD(X9)-OH; thioether N-14) was 0.3 to 9.9 nM.
On the same count and under the same terms, to `CCCC[C@H]1C(=O)N(C)[C@@H](CCCC)C(=O)N[C@@H](CC(C)C)C(=O)N[C@H](C(=O)NCC(=O)N[C@@H](CC(=O)N2CCOC[C@@H]2C(=O)NCC[C@H](NC(=O)CCCCCCCCCCCCCCCCC(=O)O)C(=O)O)C(=O)O)CSCC(=O)N[C@@H](Cc2ccc(O)cc2)C(=O)N2CCCC[C@H]2C(=O)N[C@@H](CC(N)=O)C(=O)N2CCC[C@H]2C(=O)N[C@@H](CN)C(=O)N[C@@H](CC(C)C)C(=O)N2C[C@H](O)C[C@H]2C(=O)N[C@@H](Cc2c[nH]c3ccccc23)C(=O)N[C@@H](CCN)C(=O)N[C@@H](Cc2cn(CC(=O)O)c3ccccc23)C(=O)N1C` [Example 13158] ({CH2CO}-Y[Pip]NP[Dap]L[Hyp]W[Dab][Trp(1-CH2COOH)][NMeNle][NMeNle]LCG[βAsp][X16]-X9; thioether N-14) belongs 0.3 to 9.9 nM; to `CCCC[C@H]1C(=O)N(C)[C@@H](CCCC)C(=O)N[C@@H](CC(C)C)C(=O)N[C@H](C(=O)NCC(=O)N[C@@H](CC(=O)NCCOCC(=O)NCC[C@H](NC(=O)CCCCCCCCCCCCCCCCC(=O)O)C(=O)O)C(=O)O)CSCC(=O)N[C@@H](Cc2ccc(O)cc2)C(=O)N2CCCC[C@H]2C(=O)N[C@@H](CC(N)=O)C(=O)N2CCC[C@H]2C(=O)N[C@@H](CN)C(=O)N[C@@H](CC(C)C)C(=O)N2C[C@H](O)C[C@H]2C(=O)N[C@@H](Cc2c[nH]c3ccccc23)C(=O)N[C@@H](CCN)C(=O)N[C@@H](Cc2cn(CC(=O)O)c3ccccc23)C(=O)N1C` [Example 13159] ({CH2CO}-Y[Pip]NP[Dap]L[Hyp]W[Dab][Trp(1-CH2COOH)][NMeNle][NMeNle]LCG[βAsp][AEA]-X9; thioether N-14), 0.3 to 9.9 nM; to `CCCC[C@H]1C(=O)N(C)[C@@H](CCCC)C(=O)N[C@@H](CC(C)C)C(=O)N[C@H](C(=O)NCC(=O)N[C@@H](CC(=O)NCCC(=O)NCC[C@H](NC(=O)CCCCCCCCCCCCCCCCC(=O)O)C(=O)O)C(=O)O)CSCC(=O)N[C@@H](Cc2ccc(O)cc2)C(=O)N2CCCC[C@H]2C(=O)N[C@@H](CC(N)=O)C(=O)N2CCC[C@H]2C(=O)N[C@@H](CN)C(=O)N[C@@H](CC(C)C)C(=O)N2C[C@H](O)C[C@H]2C(=O)N[C@@H](Cc2c[nH]c3ccccc23)C(=O)N[C@@H](CCN)C(=O)N[C@@H](Cc2cn(CC(=O)O)c3ccccc23)C(=O)N1C` [Example 13160] ({CH2CO}-Y[Pip]NP[Dap]L[Hyp]W[Dab][Trp(1-CH2COOH)][NMeNle][NMeNle]LCG[βAsp][βAla]-X9; thioether N-14), 0.3 to 9.9 nM.
Same read-out and setting: to `CCCC[C@H]1C(=O)N(C)[C@@H](CCCC)C(=O)N[C@@H](CC(C)C)C(=O)N[C@H](C(=O)NCC(=O)N[C@@H](CC(=O)NCCOCCC(=O)NCC[C@H](NC(=O)CCCCCCCCCCCCCCCCC(=O)O)C(=O)O)C(=O)O)CSCC(=O)N[C@@H](Cc2ccc(O)cc2)C(=O)N2CCCC[C@H]2C(=O)N[C@@H](CC(N)=O)C(=O)N2CCC[C@H]2C(=O)N[C@@H](CN)C(=O)N[C@@H](CC(C)C)C(=O)N2C[C@H](O)C[C@H]2C(=O)N[C@@H](Cc2c[nH]c3ccccc23)C(=O)N[C@@H](CCN)C(=O)N[C@@H](Cc2cn(CC(=O)O)c3ccccc23)C(=O)N1C` [Example 13161] ({CH2CO}-Y[Pip]NP[Dap]L[Hyp]W[Dab][Trp(1-CH2COOH)][NMeNle][NMeNle]LCG[βAsp][PEG1]-X9; thioether N-14) belongs 0.3 to 9.9 nM; to `CCCC[C@H]1C(=O)N(C)[C@@H](CCCC)C(=O)N[C@@H](CC(C)C)C(=O)N[C@H](C(=O)NCC(=O)N[C@@H](CC(=O)NCCOCCOCCC(=O)NCC[C@H](NC(=O)CCCCCCCCCCCCCCCCC(=O)O)C(=O)O)C(=O)O)CSCC(=O)N[C@@H](Cc2ccc(O)cc2)C(=O)N2CCCC[C@H]2C(=O)N[C@@H](CC(N)=O)C(=O)N2CCC[C@H]2C(=O)N[C@@H](CN)C(=O)N[C@@H](CC(C)C)C(=O)N2C[C@H](O)C[C@H]2C(=O)N[C@@H](Cc2c[nH]c3ccccc23)C(=O)N[C@@H](CCN)C(=O)N[C@@H](Cc2cn(CC(=O)O)c3ccccc23)C(=O)N1C` [Example 13163] ({CH2CO}-Y[Pip]NP[Dap]L[Hyp]W[Dab][Trp(1-CH2COOH)][NMeNle][NMeNle]LCG[βAsp][PEG2]-X9; thioether N-14), 0.3 to 9.9 nM.
Turning to `CCCC[C@H]1C(=O)N(C)[C@@H](CCCC)C(=O)N[C@@H](CC(C)C)C(=O)N[C@H](C(=O)NCC(=O)N[C@@H](CC(=O)NCCCCC(=O)NCC[C@H](NC(=O)CCCCCCCCCCCCCCCCC(=O)O)C(=O)O)C(=O)O)CSCC(=O)N[C@@H](Cc2ccc(O)cc2)C(=O)N2CCCC[C@H]2C(=O)N[C@@H](CC(N)=O)C(=O)N2CCC[C@H]2C(=O)N[C@@H](CN)C(=O)N[C@@H](CC(C)C)C(=O)N2C[C@H](O)C[C@H]2C(=O)N[C@@H](Cc2c[nH]c3ccccc23)C(=O)N[C@@H](CCN)C(=O)N[C@@H](Cc2cn(CC(=O)O)c3ccccc23)C(=O)N1C` [Example 13164] ({CH2CO}-Y[Pip]NP[Dap]L[Hyp]W[Dab][Trp(1-CH2COOH)][NMeNle][NMeNle]LCG[βAsp][Ava]-X9; thioether N-14), the IC50 is 0.3 to 9.9 nM.
